{
  "source": "the Kinase Knowledgebase extract (Sharma et al. 2016)",
  "assay_in_all_cases": "Enzyme Assay",
  "key": {"PIK3CB (Human)": {"molecular_target": "PIK3CB (Human) (UniProt P42338)", "sequence (P42338 whole entry, looked up)": "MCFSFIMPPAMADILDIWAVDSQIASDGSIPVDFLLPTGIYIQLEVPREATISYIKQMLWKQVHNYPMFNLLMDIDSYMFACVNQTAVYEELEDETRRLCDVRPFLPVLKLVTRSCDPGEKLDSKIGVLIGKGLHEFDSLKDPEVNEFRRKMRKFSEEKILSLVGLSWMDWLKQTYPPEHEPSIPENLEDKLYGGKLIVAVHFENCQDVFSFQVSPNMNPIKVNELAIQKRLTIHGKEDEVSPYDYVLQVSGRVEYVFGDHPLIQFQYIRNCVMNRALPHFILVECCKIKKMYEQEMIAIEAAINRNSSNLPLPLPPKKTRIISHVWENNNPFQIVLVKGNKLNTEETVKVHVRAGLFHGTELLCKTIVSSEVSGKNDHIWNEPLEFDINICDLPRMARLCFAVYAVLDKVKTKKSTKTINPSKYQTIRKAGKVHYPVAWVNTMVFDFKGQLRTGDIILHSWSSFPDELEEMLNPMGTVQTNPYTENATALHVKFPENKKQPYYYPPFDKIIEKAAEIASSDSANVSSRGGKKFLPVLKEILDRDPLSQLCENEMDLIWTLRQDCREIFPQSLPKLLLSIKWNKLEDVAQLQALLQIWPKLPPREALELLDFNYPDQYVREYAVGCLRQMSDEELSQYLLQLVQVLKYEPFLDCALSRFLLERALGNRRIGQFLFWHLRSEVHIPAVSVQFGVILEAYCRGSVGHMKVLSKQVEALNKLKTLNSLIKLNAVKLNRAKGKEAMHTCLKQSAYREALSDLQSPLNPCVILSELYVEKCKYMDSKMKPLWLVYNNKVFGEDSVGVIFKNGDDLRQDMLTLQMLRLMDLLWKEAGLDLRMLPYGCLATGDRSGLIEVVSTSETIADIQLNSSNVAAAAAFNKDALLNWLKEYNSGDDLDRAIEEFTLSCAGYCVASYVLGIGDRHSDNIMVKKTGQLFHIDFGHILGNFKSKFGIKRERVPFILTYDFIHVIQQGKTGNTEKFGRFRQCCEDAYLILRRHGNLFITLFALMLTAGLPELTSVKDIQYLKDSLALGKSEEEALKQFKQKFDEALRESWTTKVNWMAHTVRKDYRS"}, "PIK3CD (Human)": {"molecular_target": "PIK3CD (Human) (UniProt O00329)", "sequence (O00329 whole entry, looked up)": "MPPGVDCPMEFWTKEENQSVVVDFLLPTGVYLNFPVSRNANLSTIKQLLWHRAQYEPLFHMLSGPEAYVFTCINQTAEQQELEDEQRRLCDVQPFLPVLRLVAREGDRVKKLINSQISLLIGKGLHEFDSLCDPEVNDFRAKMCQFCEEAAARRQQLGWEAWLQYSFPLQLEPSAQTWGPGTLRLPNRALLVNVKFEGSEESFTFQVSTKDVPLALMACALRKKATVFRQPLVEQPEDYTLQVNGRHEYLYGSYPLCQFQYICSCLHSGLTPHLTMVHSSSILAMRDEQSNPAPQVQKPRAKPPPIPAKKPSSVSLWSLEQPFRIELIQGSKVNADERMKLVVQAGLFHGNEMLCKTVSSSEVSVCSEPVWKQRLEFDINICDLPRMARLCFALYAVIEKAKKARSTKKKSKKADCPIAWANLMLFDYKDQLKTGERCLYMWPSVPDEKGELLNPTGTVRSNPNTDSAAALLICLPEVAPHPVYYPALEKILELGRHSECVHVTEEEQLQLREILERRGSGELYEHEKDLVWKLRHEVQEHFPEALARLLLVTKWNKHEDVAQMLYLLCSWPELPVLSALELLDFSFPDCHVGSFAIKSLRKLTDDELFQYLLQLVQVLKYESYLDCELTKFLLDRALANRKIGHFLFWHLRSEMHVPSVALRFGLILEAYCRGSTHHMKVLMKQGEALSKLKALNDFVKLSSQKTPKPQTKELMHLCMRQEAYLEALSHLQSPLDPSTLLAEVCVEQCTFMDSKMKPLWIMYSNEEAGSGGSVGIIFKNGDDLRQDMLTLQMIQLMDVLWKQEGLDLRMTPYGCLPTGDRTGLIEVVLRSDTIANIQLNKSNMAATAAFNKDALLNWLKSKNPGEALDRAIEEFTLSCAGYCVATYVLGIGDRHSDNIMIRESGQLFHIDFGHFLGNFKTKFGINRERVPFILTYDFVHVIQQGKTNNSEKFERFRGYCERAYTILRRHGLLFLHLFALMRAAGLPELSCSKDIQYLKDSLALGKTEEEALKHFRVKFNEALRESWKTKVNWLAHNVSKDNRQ"}, "PIK3CG (human)": {"molecular_target": "PIK3CG (human) (UniProt P48736)", "sequence (P48736 whole entry, looked up)": "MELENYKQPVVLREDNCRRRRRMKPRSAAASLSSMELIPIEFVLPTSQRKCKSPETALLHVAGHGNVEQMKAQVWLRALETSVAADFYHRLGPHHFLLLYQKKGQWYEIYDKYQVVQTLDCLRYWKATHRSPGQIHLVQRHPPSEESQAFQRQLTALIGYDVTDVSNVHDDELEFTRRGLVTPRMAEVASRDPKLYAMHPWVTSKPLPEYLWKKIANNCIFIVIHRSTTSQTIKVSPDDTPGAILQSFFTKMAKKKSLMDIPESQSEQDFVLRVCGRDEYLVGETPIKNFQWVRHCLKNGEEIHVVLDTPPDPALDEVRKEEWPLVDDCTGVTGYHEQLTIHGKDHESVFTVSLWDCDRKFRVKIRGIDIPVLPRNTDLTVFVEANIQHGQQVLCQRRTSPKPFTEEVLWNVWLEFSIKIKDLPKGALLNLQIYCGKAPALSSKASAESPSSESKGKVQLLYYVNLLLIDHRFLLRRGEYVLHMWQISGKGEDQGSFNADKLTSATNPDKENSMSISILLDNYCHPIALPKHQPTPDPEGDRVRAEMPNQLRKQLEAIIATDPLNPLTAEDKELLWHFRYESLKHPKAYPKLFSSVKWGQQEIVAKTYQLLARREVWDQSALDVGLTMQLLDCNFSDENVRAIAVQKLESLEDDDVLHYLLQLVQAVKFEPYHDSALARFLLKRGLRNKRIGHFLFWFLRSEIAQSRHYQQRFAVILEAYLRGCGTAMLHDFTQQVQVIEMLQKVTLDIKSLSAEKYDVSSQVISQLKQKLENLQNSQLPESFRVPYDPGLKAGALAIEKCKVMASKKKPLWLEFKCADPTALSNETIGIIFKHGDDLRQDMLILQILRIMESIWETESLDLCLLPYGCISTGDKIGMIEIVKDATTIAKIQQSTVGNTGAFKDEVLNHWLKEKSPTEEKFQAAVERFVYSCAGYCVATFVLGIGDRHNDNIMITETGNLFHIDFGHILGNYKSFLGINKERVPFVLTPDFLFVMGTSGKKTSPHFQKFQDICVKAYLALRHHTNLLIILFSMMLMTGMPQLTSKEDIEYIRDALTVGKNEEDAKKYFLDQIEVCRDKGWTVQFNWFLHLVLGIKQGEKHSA"}},
  "data": [
    {"smiles": "C[S@+]([O-])c1c[nH]c2ncnc(N3C[C@@H](C#N)C[C@H]3c3nn4ccc(Cl)c4c(=O)n3-c3ccccc3)c12", "values": [
      {"measurement": "IC50", "setting": "PIK3CB (Human)", "result": 256, "unit": "nM"},
      {"measurement": "IC50", "setting": "PIK3CD (Human)", "result": 21, "unit": "nM"},
      {"measurement": "IC50", "setting": "PIK3CG (human)", "result": 38, "unit": "nM"}
    ]},
    {"smiles": "COc1ncc(-c2n[nH]c3ncnc(N4CCC[C@H]4c4nn5ccc(Cl)c5c(=O)n4-c4ccccc4)c23)cn1", "values": [
      {"measurement": "IC50", "setting": "PIK3CB (Human)", "result": 47, "unit": "nM"},
      {"measurement": "IC50", "setting": "PIK3CD (Human)", "result": 1, "unit": "nM"},
      {"measurement": "IC50", "setting": "PIK3CG (human)", "result": 15, "unit": "nM"}
    ]},
    {"smiles": "C[C@H]1CN(c2nc(N)nc3c2C(=O)CCN3)[C@@H]1c1nn2ccc(Cl)c2c(=O)n1-c1ccccn1", "values": [
      {"measurement": "IC50", "setting": "PIK3CB (Human)", "result": 1580, "unit": "nM"},
      {"measurement": "IC50", "setting": "PIK3CD (Human)", "result": 12, "unit": "nM"},
      {"measurement": "IC50", "setting": "PIK3CG (human)", "result": 18, "unit": "nM"}
    ]},
    {"smiles": "O=c1c2c(Br)ccn2nc([C@@H]2CCN2c2ncnc3[nH]cnc23)n1-c1ccccc1", "values": [
      {"measurement": "IC50", "setting": "PIK3CD (Human)", "result": 156, "unit": "nM"},
      {"measurement": "IC50", "setting": "PIK3CG (human)", "result": 287, "unit": "nM"}
    ]},
    {"smiles": "Nc1nc(N2CCC[C@H]2c2nn3cccc3c(=O)n2-c2ccccc2)c2nc[nH]c2n1", "values": [
      {"measurement": "IC50", "setting": "PIK3CD (Human)", "result": 6, "unit": "nM"},
      {"measurement": "IC50", "setting": "PIK3CG (human)", "result": 40, "unit": "nM"}
    ]},
    {"smiles": "Nc1ncc([N+](=O)O)c(N2CC[C@H]2c2nn3ccc(Cl)c3c(=O)n2-c2ccccc2)n1", "values": [
      {"measurement": "IC50", "setting": "PIK3CD (Human)", "result": 40, "unit": "nM"},
      {"measurement": "IC50", "setting": "PIK3CG (human)", "result": 25, "unit": "nM"}
    ]},
    {"smiles": "CC(Nc1ncnc2[nH]cc(C#N)c12)c1cc2cccn2c(=O)n1-c1ccccc1", "note": "(configuration not stated)", "values": [
      {"measurement": "IC50", "setting": "PIK3CG (human)", "result": 105, "unit": "nM"}
    ]},
    {"smiles": "COc1cccc(-n2c([C@@H]3CCCN3c3ncnc4[nH]cc(C#N)c34)nn3cccc3c2=O)c1", "values": [
      {"measurement": "IC50", "setting": "PIK3CD (Human)", "result": 5, "unit": "nM"},
      {"measurement": "IC50", "setting": "PIK3CG (human)", "result": 89, "unit": "nM"}
    ]},
    {"smiles": "C=Cc1ccn2nc([C@@H]3CCN3c3ncnc4[nH]cc(C#N)c34)n(-c3ccccc3)c(=O)c12", "values": [
      {"measurement": "IC50", "setting": "PIK3CD (Human)", "result": 300, "unit": "nM"}
    ]},
    {"smiles": "Nc1ncc(C(=O)C(F)F)c(N2CC[C@H]2c2nn3ccc(Cl)c3c(=O)n2-c2ccccc2)n1", "values": [
      {"measurement": "IC50", "setting": "PIK3CD (Human)", "result": 38, "unit": "nM"},
      {"measurement": "IC50", "setting": "PIK3CG (human)", "result": 10, "unit": "nM"}
    ]},
    {"smiles": "C[S@@+]([O-])c1c[nH]c2ncnc(N3C[C@@H](C#N)C[C@H]3c3nn4ccc(Cl)c4c(=O)n3-c3ccccc3)c12", "values": [
      {"measurement": "IC50", "setting": "PIK3CD (Human)", "result": 64, "unit": "nM"},
      {"measurement": "IC50", "setting": "PIK3CG (human)", "result": 16, "unit": "nM"}
    ]},
    {"smiles": "N#Cc1c(N)ncnc1OCc1cc2ncc(Cl)n2c(=O)n1-c1ccccc1", "values": [
      {"measurement": "IC50", "setting": "PIK3CD (Human)", "result": 136, "unit": "nM"}
    ]},
    {"smiles": "N#Cc1c[nH]c2ncnc(N3CC[C@H]3c3nn4cccc4c(=O)n3-c3ccccc3)c12", "values": [
      {"measurement": "IC50", "setting": "PIK3CD (Human)", "result": 93, "unit": "nM"}
    ]},
    {"smiles": "N#Cc1n[nH]c2ncnc(N3CCC[C@H]3c3nn4cccc4c(=O)n3-c3ccccc3)c12", "values": [
      {"measurement": "IC50", "setting": "PIK3CD (Human)", "result": 26, "unit": "nM"},
      {"measurement": "IC50", "setting": "PIK3CG (human)", "result": 231, "unit": "nM"}
    ]}
  ]
}
